In patent publication US11319289B2, “5-hydroxy pyridine-based compound for use as P2X1 and P2X3 receptor antagonist and pharmaceutical composition comprising same” (GWANGJU INSTITUTE OF SCIENCE AND TECHNOLOGY, priority 2017, dated 2022):
Where “and” joins values, the source holds several entries; their conditions need not be identical. Identical values can stand only once. Like-named read-outs stand apart in the source and are kept apart here.

Columns and labels:
Assay type in all cases: cell-based
[1] = target: T1, mouse P2X1 receptor (mP2X1) (Mus musculus, UniProt P51576); test: Two-electrode voltage clamp assay, recombinant mP2X1 receptor in Xenopus oocytes; settings: for mP2X1 % inhibitory effect at 10 μM / inhibition at 10 µM: 10 μM compound, mean±SEM n≥3 (footnote c); for inhibition at 10 µM: read-out: mP2X1 % inhibitory effect at 10 μM
T1 construct: expressed in transfected cells; host or cells: Xenopus oocytes (cRNA microinjection)
T1 sequence (P51576 1-399): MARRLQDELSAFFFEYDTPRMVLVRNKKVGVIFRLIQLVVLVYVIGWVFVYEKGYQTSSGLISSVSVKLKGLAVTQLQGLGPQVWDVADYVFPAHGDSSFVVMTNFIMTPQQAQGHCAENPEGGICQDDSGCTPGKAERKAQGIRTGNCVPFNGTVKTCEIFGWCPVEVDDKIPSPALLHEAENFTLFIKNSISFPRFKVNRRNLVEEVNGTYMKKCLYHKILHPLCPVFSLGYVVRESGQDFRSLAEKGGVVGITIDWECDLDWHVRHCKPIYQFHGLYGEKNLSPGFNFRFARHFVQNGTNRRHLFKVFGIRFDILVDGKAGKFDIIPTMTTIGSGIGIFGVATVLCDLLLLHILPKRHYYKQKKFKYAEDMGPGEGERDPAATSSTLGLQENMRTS
Description: (§1) 1-1. Two-Electrode Voltage Clamp Assay for Recombinant mP2X1 and hP2X3 Receptors
(§2) Xenopus oocytes were isolated and incubated with 270 U/mg of collagenase at 23 to 24° C. for 1.5 hours. Defolliculated oocytes were kept in Barth's solution at 18° C. After 1 day, the defolliculated oocytes were each microinjected cytosolically with mP2X1 and human P2X3 receptor cRNA ([…], 1 μg/mL), incubated for 24 hours at 18° C. in Barth's solution. The cRNA-injected oocytes were kept for 12 days at 4° C. ATP-activated membrane currents (Vh=−70 mV) were recorded from the cRNA-injected oocytes using the two-electrode voltage clamp technique (Axoclamp 2B amplifier). Voltage recording ([…] tip resistance) and current-recording microelectrodes (5 MΩ tip resistance) were filled with 3.0 M KCl. Oocytes were placed in an electrophysiological chamber continuously superfused with Ringer's solution (5 mL/min, at 18° C.) containing 110 mM NaCl, 2.5 mM KCl, 5 mM HEPES and 1.8 mM BaCl2, with pH adjusted to 7.5. To induce an evoked current, 2 μM ATP was superfused for 60 to 120 seconds and then washed for 20 min. For data analysis, the ATP-evoked current was normalized at pH 7.5. The compounds were introduced to the fixed oocytes 20 minutes prior to ATP exposure in the electrophysiological chamber. IC50 values (the concentration of the compound required to inhibit the ATP response by 50%) were determined by Hill plots designed using the Chemical Formula: log(I/Imax−1), where I is the current evoked by ATP in the presence of an antagonist. Data are presented as mean±SEM (n≥3) from different batches of oocytes.
(§3) In order to investigate the structure-activity relationship (SAR) of the compounds synthesized in the present invention, the antagonistic activity was evaluated by a two-electrode voltage clamp (TEVC) assay in Xenopus oocytes expressing the recombinant mP2X1 or hP2X3, respectively. The hP2X7R antagonistic activity was assessed using an ethidium ion accumulation assay in human HEK293 cells stably expressing the recombinant human P2X7R.

[2] = target: T2, human P2X3 receptor (hP2X3) (Homo sapiens, UniProt P56373); test: Two-electrode voltage clamp assay, recombinant hP2X3 receptor in Xenopus oocytes; settings: for IC50: 2 μM ATP-evoked current, mean±SEM n≥3 (footnote d); for IC50 / inhibition at 1 µM: Xenopus oocytes; for inhibition at 1 µM: 1 μM compound, 2 μM ATP, mean±SEM n≥3 (footnote b), read-out: hP2X3 % inhibitory effect at 1 μM; for selectivity for hP2X3R to mP2X1R: hP2X3R versus mP2X1R
T2 construct: expressed in transfected cells; host or cells: Xenopus oocytes (cRNA microinjection)
T2 sequence (P56373 1-397): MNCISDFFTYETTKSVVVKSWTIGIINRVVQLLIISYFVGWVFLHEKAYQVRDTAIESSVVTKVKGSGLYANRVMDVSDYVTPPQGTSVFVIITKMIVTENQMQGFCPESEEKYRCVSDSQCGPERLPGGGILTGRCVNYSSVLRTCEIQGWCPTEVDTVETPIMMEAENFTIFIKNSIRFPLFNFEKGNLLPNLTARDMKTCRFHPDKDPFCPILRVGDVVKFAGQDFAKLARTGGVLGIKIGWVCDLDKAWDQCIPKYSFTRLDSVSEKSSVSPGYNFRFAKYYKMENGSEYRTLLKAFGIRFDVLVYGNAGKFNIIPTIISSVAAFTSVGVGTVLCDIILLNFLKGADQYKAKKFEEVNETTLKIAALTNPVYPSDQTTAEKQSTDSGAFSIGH
Description: as §1, §2, §3

[3] = target: T3, human P2X7 receptor (hP2X7) (Homo sapiens, UniProt Q99572); test: Ethidium bromide accumulation assay in hP2X7-expressing HEK293 cells; settings: for hP2X7 % inhibition of ethidium bromide accumulation: 10 μM compound with BzATP
T3 construct: expressed in transfected cells
T3 sequence (Q99572 1-595): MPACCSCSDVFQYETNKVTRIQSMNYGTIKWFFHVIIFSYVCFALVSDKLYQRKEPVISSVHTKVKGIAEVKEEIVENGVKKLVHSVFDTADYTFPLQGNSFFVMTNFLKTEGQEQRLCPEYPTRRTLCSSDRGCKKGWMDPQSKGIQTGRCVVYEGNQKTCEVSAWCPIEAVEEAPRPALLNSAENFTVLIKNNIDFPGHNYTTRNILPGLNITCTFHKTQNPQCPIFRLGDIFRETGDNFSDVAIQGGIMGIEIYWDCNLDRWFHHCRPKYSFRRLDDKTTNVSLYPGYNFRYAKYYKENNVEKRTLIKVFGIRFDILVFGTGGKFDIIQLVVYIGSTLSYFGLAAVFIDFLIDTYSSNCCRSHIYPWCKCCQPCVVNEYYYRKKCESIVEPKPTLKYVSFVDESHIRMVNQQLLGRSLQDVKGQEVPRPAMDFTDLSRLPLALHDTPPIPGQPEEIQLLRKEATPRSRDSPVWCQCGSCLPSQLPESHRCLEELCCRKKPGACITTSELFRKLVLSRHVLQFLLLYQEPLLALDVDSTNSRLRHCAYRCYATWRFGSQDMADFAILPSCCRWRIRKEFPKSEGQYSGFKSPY
Description: 1-2. Ethidium Bromide Accumulation Assay in hP2X-Expressing HEK293 Cells
HEK293 cells that are stably transfected with the human P2X7 receptor (P2X7R) were kept under a humidified atmosphere of 5% CO2 at 37° C. in DMEM supplemented with 10% (v/v) FBS, 2 mM L-glutamine and antibiotics (50 U/mL penicillin and 50 μg/ml streptomycin). BzATP-induced pore formation was measured using a fluorescence plate reader by measuring cellular absorption of ethidium in the hP2X7-expressing HEK293 cells. The hP2X7-expressing HEK293 cells were washed once with an appropriate assay buffer, and the buffer was also removed before subsequent analysis. All studies were performed at room temperature and the final assay volume was 100 μL. The cells were resuspended at 2.5×10^6 cells/mL in assay buffers consisting of 10 mM HEPES, 5 mM N-methyl-D-glucamine, 5.6 mM KCl, 10 mM D-glucose and 0.5 mM CaCl2 (pH 7.4) and supplemented with 280 mM sucrose or 140 mM NaCl.
In order to determine the antagonistic activity of the 5-hydroxyl-pyridine derivatives of the present invention and the reference compound (AZD9056), these compounds were added to the cells at a concentration of 10 μM with BzATP without pre-incubation. The cells were incubated for 2 hours under a humidified atmosphere of 5% CO2 at 37° C., and the absorption of ethidium dye was observed by measuring fluorescence with a Bio-Tek instrument FL600 fluorescent plate reader (excitation wavelength of 530 nm and emission wavelength of 590 nm). The results are expressed as a percentage relative to the maximum cumulative amount of ethidium bromide when stimulated with BzATP alone.
as §3

| Structure (SMILES) | mP2X1 % inhibitory effect at 10 μM ([1]; 2 μM ATP) | IC50 [2] | hP2X7 % inhibition of ethidium bromide accumulation [3] | inhibition at 10 µM ([1]; 2 μM ATP) | also measured |
| --- | --- | --- | --- | --- | --- |
| COc1ccc(CCc2nc(CCc3ccccc3)c(O)c(C(=O)O)c2C(=O)O)cc1 [Compound 13i, 5-Hydroxy-2-(4-methoxyphenethyl)-6-phenethylpyridine-3,4-dicarboxylic acid] | Inactive^c | 742 ± 73 nM | inactive |  |  |
| CCCc1nc(CCc2ccc(OC)cc2)c(C)c(C(=O)O)c1O [Compound 22c, 3-Hydroxy-6-(4-methoxyphenethyl)-5-methyl-2-propylisonicotinic acid] |  | 303 nM | Inactive | 22.7% |  |
| CCCc1nc(Cc2cccc(Oc3ccccc3)c2)c(C)c(CN)c1O [Compound 41, 4-(Aminomethyl)-5-methyl-6-(3-phenoxybenzyl)-2-propylpyridin-3-ol] | inactive^c |  | inactive |  | inhibition at 1 µM [2]: < 50% |
| COc1ccc(CCc2ncc(O)c(C(=O)O)c2C(=O)O)cc1 [Compound 13a, 5-Hydroxy-2-(4-methoxyphenethyl)pyridine-3,4-dicarboxylic acid] |  | 561 ± 99 nM | Inactive |  | IC50 ([1]; 2 μM ATP-evoked current, mean±SEM n≥3 (footnote d), read-out: mP2X1 IC50): 236000 ± 78000 pM; selectivity for hP2X3R to mP2X1R [2]: non-selective |
| CCCCc1nc(CCc2ccc(OC)cc2)c(C(=O)O)c(C(=O)O)c1O [Compound 13e, 6-Butyl-5-hydroxy-2-(4-methoxyphenethyl)pyridine-3,4-dicarboxylic acid] |  | 95 nM | inactive | 41.9 ± 9.1% | selectivity for hP2X3R to mP2X1R [2]: about 100 fold |
| COc1ccc(CCc2nc(C(=O)O)c(O)c(C(=O)O)c2C(=O)O)cc1 [Compound 13j, 3-Hydroxy-6-(4-methoxyphenethyl)pyridine-2,4,5-tricarboxylic acid] |  | 319 ± 81 nM | Inactive | 36.7 ± 2.8% |  |
| COc1ccc(CCc2nc(CC(C)C)c(O)c(C(=O)O)c2C(=O)O)cc1 [Compound 13g, 5-Hydroxy-6-isobutyl-2-(4-methoxyphenethyl)pyridine-3,4-dicarboxylic acid] |  |  | inactive | 23.4 ± 0.8% | inhibition at 1 µM [2]: 32% |
| COc1ccc(CCc2nc(C)c(O)c(C(=O)O)c2C)cc1 [Compound 22b, 3-Hydroxy-6-(4-methoxyphenethyl)-2,5-dimethylisonicotinic acid] | Inactive^c | 384 nM and 385 nM | inactive |  |  |
| COc1ccc(CCc2nc(Cc3ccccc3)c(O)c(C(=O)O)c2C(=O)O)cc1 [Compound 13h, 6-Benzyl-5-hydroxy-2-(4-methoxyphenethyl)pyridine-3,4-dicarboxylic acid] | Inactive^c | 751 ± 83 nM | Inactive |  |  |
| O=C(Nc1cc(C(=O)Nc2ccc(S(=O)(=O)O)cc2S(=O)(=O)O)cc(C(=O)Nc2ccc(S(=O)(=O)O)cc2S(=O)(=O)O)c1)Nc1cc(C(=O)Nc2ccc(S(=O)(=O)O)cc2S(=O)(=O)O)cc(C(=O)Nc2ccc(S(=O)(=O)O)cc2S(=O)(=O)O)c1 [NF-449, reference compound] |  |  |  |  | IC50 ([1]; 2 μM ATP, read-out: mP2X1 (positive control, value in pM)): 307 ± 93 pM |
| CCCc1nc(Cc2cccc(Oc3ccccc3)c2)c(C)c(CCC(=O)O)c1O [Compound 37, 3-(3-Hydroxy-5-methyl-6-(3-phenoxybenzyl)-2-propylpyridin-4-yl)propanoic acid] | inactive^c |  | inactive |  |  |
| COc1ccc(CCc2nc(C)c(O)c(C(=O)O)c2C(=O)O)cc1 [Compound 13b, 5-Hydroxy-2-(4-methoxyphenethyl)-6-methylpyridine-3,4-dicarboxylic acid] |  |  | Inactive |  | selectivity for hP2X3R to mP2X1R [2]: non-selective |
| O=C(NCC12CC3CC(CC(C3)C1)C2)c1cc(CCCNCCCO)ccc1Cl [AZD9056, reference compound] |  |  |  |  | IC50 ([3]; ethidium accumulation, read-out: hP2X7 (reference compound, value in nM)): 0.23 ± 0.11 nM |
